Test results reported in patent US10980735B2, “Externally-applied dermal preparation composition containing extract of green tea cultivated under extreme shading” (AMOREPACIFIC CORPORATION, priority 2016, dated 2021).

What was measured:
elastase type III = biological target: T1, elastase type III (Sus scrofa, UniProt P00772); assay: Inhibitory effect of elastase activity; type: biochemical; details: EGCG 250 μM as positive control; 25° C., 15 minutes, pH 8.0
T1 construct: purchased Sigma-Aldrich, U.S.A. E0127
Description: The inhibitory effect of elastase activity of the extract of green tea cultivated by extreme light-shielding on anti-aging was measured in comparison with that of EGCG. The elastase and the substrate used herein were purchased from Sigma-Aldrich, […]0127). The inhibitory function of elastase activity was tested according to the following method. In a 96-well plate, […] (200 μL) and 50 μL of a 20 μg/mL elastase type III solution were mixed with a […] Tris-HCL buffer solution (pH 8.0). EGCG 250 μM was used as a positive control, and purified water was used as a non-treated group, which was a negative control. […] After completion of the reaction, the absorbance at the wavelength of 415 nm was measured. […] The inhibitory function of elastase was calculated according to the following Mathematical Formula 2, and the results are shown in Table 10. […] A: Absorbance at the wavelength of 415 nm in the absence of the test material and in the presence of enzyme B: Absorbance at the wavelength of 415 nm in the absence of the test material and enzyme C: Absorbance at the wavelength of 415 nm in the presence of the test material and enzyme D: Absorbance at the wavelength of 415 nm in the presence of the test material and in the absence of enzyme

collagenase (MMP-1) = assay: Collagenase (MMP-1) production in human fibroblasts (ELISA); type: cell-based; details: 10 μg/ml, 24 hours, non-treated group = 100
Description: The collagenase production inhibitory effect of the present invention on wrinkle improvement was measured in comparison with retinoic acid.
Human fibroblasts were seeded at 5,000 cells/well in a 96-well microtiter plate filled with a Dulbecco's modified eagle's medium (DMEM) containing 2.5% fetal bovine serum and cultured in a 5% CO2 incubator at 37° C. until they grew by about 70 to 80%. The cells were treated with the extracts of Examples 1 and 2 and Comparative Examples 1 and 3 or retinoic acid at a concentration of 10 μg/ml for 24 hours, and the cell culture was collected.
The production yield of collagenase in the collected cell culture was measured using a collagenase measurement instrument commercially available (Catalog #. RPN 2610, manufactured by Amersham Pharma Inc., USA). […]
The absorbance of the yellow-colored 96-well plate was measured at 405 nm with a spectrophotometer, and the expression level of collagenase was calculated according to the following Mathematical Formula 1. At this time, the absorbance of the cell culture collected from the group not treated with the composition was considered as the control group. Expression level of collagenase (%)=Absorbance of substance-treated cell group/Absorbance of control group×100 [Mathematical Formula 1]

T1 sequence (P00772 27-266): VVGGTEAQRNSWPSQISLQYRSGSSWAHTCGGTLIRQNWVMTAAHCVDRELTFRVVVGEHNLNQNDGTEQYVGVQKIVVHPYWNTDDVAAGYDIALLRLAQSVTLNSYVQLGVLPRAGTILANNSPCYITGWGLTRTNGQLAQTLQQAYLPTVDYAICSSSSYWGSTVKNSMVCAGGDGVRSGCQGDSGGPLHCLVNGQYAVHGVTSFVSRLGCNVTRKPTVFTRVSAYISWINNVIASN

| Inhibition level of elastase activity (elastase type III) [%] | Structure (SMILES) | Expression level of collagenase (collagenase (MMP-1)) [%] |
| --- | --- | --- |
| 65 | O=C(O[C@@H]1Cc2c(O)cc(O)cc2O[C@@H]1c1cc(O)c(O)c(O)c1)c1cc(O)c(O)c(O)c1 [EGCG] |  |
|  | CC1=C(/C=C/C(C)=C/C=C/C(C)=C/C(=O)O)C(C)(C)CCC1 [Retinoic acid, retinoic acid] | 75 |
